This note sets out measurements from publication PMC6429331, “Synthesis, Molecular Docking and β-Glucuronidase Inhibitory Potential of Indole Base Oxadiazole Derivatives” (Molecules, 2019).

Molecules are shown by their SMILES.

One may read the melting point as the temperature, or range, at which the solid turns liquid.

The first data set deals with T1, β-glucuronidase (Bos taurus, UniProt A3KMY8).
T1 sequence (A3KMY8 24-652): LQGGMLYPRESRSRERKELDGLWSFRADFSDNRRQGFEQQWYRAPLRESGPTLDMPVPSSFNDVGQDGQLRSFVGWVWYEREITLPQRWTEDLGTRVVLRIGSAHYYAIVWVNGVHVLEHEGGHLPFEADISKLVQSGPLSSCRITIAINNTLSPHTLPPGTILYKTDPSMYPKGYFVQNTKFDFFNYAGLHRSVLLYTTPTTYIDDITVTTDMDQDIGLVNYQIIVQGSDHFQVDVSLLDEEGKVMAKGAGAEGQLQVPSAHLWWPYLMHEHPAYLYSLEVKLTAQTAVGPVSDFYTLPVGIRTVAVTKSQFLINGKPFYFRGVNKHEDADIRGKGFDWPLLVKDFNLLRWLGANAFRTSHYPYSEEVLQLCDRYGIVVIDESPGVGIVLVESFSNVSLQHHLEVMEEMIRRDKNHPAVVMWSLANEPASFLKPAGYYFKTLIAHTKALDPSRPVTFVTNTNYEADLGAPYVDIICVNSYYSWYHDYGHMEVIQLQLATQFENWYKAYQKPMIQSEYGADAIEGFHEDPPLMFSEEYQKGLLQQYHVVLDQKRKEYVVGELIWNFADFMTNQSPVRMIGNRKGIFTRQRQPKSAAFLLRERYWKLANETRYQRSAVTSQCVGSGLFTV
The data set can be described thus: β-Glucuronidase assay (p-nitrophenyl-β-D-glucuronide, absorbance at 405 nm). Format: biochemical. To be noted: classified into three groups from Table 1. The method, then: β-glucuronidase activity was determined in accordance to method used by measuring absorbance at 405 nm of p-nitrophenol formed substrate by spectrophotometric method. 250 µL was the volume of total reaction. Reaction mixture containing 5 µL of test compound solution, 185 µL of 0.1M acetate buffer, and 10 µL of enzyme solution were incubated for 30 min at 37 °C. At 405 nm the plates were recorded on multiplate reader (SpectaMax plus 384) after the addition of 50 µL of 0.4mM p-nitrophenyl-β-D-glucuronide. Experiments were performed for triplicate.
For the compound `Cc1ccc(-c2nnc(Cc3cc4ccccc4[nH]3)o2)cc1` [Compound 1, 2-((1H-indol-2-yl)methyl)-5-(p-tolyl)-1,3,4-oxadiazole], the “activity group according to inhibitory IC50 values” is on record as “low active group”. In the case of `Cc1ccccc1-c1nnc(Cc2cc3ccccc3[nH]2)o1` [Compound 2, 2-((1H-indol-2-yl)methyl)-5-(o-tolyl)-1,3,4-oxadiazole], the “activity group according to inhibitory IC50 values” is recorded as “low active group”. Take `Oc1cccc(-c2nnc(Cc3cc4ccccc4[nH]3)o2)c1` [Compound 4, 3-(5-((1H-indol-2-yl)methyl)-1,3,4-oxadiazol-2-yl) phenol]: the “activity group according to inhibitory IC50 values” was “moderate active group”. Take `Oc1ccc(O)c(-c2nnc(Cc3cc4ccccc4[nH]3)o2)c1` [Compound 5, 2-(5-((1H-indol-2-yl)methyl)-1,3,4-oxadiazol-2-yl) benzene-1,4-diol]: the “activity group according to inhibitory IC50 values” is given as “moderate active group”. In the case of `Oc1cccc(-c2nnc(Cc3cc4ccccc4[nH]3)o2)c1O` [Compound 6, 3-(5-((1H-indol-2-yl)methyl)-1,3,4-oxadiazol-2-yl) benzene-1,2-diol], the “activity group according to inhibitory IC50 values” is “Highly active group”. With `Oc1ccc(-c2nnc(Cc3cc4ccccc4[nH]3)o2)cc1O` [Compound 7, 4-(5-((1H-indol-2-yl)methyl)-1,3,4-oxadiazol-2-yl) benzene-1,2-diol], the “activity group according to inhibitory IC50 values” is given as “Highly active group”.

Tested on in a further data set: not given
Assay: not given
Settings: not given
As for `Cc1ccc(-c2nnc(Cc3cc4ccccc4[nH]3)o2)cc1` [Compound 1, 2-((1H-indol-2-yl)methyl)-5-(p-tolyl)-1,3,4-oxadiazole], the melting point is 304 to 305 °C. Compound `Cc1ccccc1-c1nnc(Cc2cc3ccccc3[nH]2)o1` [Compound 2, 2-((1H-indol-2-yl)methyl)-5-(o-tolyl)-1,3,4-oxadiazole] showed a melting point of 300 to 301 °C. `Oc1ccccc1-c1nnc(Cc2cc3ccccc3[nH]2)o1` [Compound 3, 2-(5-((1H-indol-2-yl)methyl)-1,3,4-oxadiazol-2-yl) phenol]: the melting point is 314 to 315 °C. The same measure, in the same setting: the result for `Oc1cccc(-c2nnc(Cc3cc4ccccc4[nH]3)o2)c1` [Compound 4, 3-(5-((1H-indol-2-yl)methyl)-1,3,4-oxadiazol-2-yl) phenol] reads 311 to 312 °C; that for `Oc1cccc(-c2nnc(Cc3cc4ccccc4[nH]3)o2)c1O` [Compound 6, 3-(5-((1H-indol-2-yl)methyl)-1,3,4-oxadiazol-2-yl) benzene-1,2-diol], 317 to 318 °C; that for `Oc1ccc(-c2nnc(Cc3cc4ccccc4[nH]3)o2)cc1O` [Compound 7, 4-(5-((1H-indol-2-yl)methyl)-1,3,4-oxadiazol-2-yl) benzene-1,2-diol], 316 to 317 °C. Compound `Oc1ccc(-c2nnc(Cc3cc4ccccc4[nH]3)o2)c(O)c1` [Compound 8, 4-(5-((1H-indol-2-yl)methyl)-1,3,4-oxadiazol-2-yl) benzene-1,3-diol] had a melting point of 318 to 319 °C.

Consider `O=[N+]([O-])c1ccccc1-c1nnc(Cc2cc3ccccc3[nH]2)o1` [Compound 10, 2-((1H-indol-2-yl)methyl)-5-(2-nitrophenyl)-1,3,4-oxadiazole], for which the melting point fell in the range of 307 to 308 °C. `O=[N+]([O-])c1cccc(-c2nnc(Cc3cc4ccccc4[nH]3)o2)c1` [Compound 11, 2-((1H-indol-2-yl)methyl)-5-(3-nitrophenyl)-1,3,4-oxadiazole] returned a melting point of 303 to 304 °C. Still for that read-out and setting: the result for `O=[N+]([O-])c1ccc(-c2nnc(Cc3cc4ccccc4[nH]3)o2)cc1` [Compound 12, 2-((1H-indol-2-yl)methyl)-5-(4-nitrophenyl)-1,3,4-oxadiazole] reads 309 to 310 °C; that for `COc1ccc(O)c(-c2nnc(Cc3cc4ccccc4[nH]3)o2)c1` [Compound 13, 2-(5-((1H-indol-2-yl)methyl)-1,3,4-oxadiazol-2-yl)-4-methoxyphenol], 313 to 314 °C; that for `c1cncc(-c2nnc(Cc3cc4ccccc4[nH]3)o2)c1` [Compound 16, 2-((1H-indol-2-yl)methyl)-5-(pyridin-3-yl)-1,3,4-oxadiazole], 279 to 280 °C. Same read-out and setting: to `c1ccc2[nH]c(Cc3nnc(-c4ccncc4)o3)cc2c1` [Compound 17, 2-((1H-indol-2-yl)methyl)-5-(pyridin-4-yl)-1,3,4-oxadiazole] belongs 284 to 285 °C; to `Fc1ccccc1-c1nnc(Cc2cc3ccccc3[nH]2)o1` [Compound 18, 2-((1H-indol-2-yl)methyl)-5-(2-fluorophenyl)-1,3,4-oxadiazole], 294 to 295 °C.
